# Reference: patent publication US6395741B1, “Agent for prophylaxis or treatment of dysuria” (Tanabe Seiyaku Co., Ltd., priority 1998, dated 2002)
# Square brackets hold non-standard residues; d marks the D form. Ends that are not written are not given here. Peptide text beside a SMILES is read from it. Nva = CCC[C@H](N)C(=O)O
# Tests used:
# [1] = tested on: smooth muscle of hypertrophied prostatic adenoma; details: Journal of Japanese Urology Society, vol. 84, No. 9, 1993; cited from earlier work
# anesthetized dogs = assay: Urethral resistance increasing activity in the anesthetized dogs; assay type: in vivo, dog
# Experimental: (§1) Polyethylene tubes were inserted to male adult mongrel dogs which had been fasted overnight (four dogs, weights: 10 to 14 kg), under pentobarbital anesthesia (30 mg/kg, i.v.), at the femoral veins on both sides. The anesthesia was maintained by continuous transfusion of pentobarbital (4.5 mg/kg) from said polyethylene tubes, and the dogs were ventilated by a respirator for animal (20 strokes per minute, 15 ml/kg/ventilation). Then, a polyethylene tube was inserted for administration of a test compound into the duodenum, and the urinary bladder and the proximal urethra were exposed. In order to avoid the urinary backup within the urinary bladder, a polyethylene tube having a silicon tube was inserted at the ureters on both sides, by which a way for excreting the urine from the body was reserved. Moreover, in order to determine the ventral and dorsal prostatic urethral resistances, the apex of the urinary bladder was incised, and a 2-hole open-tip catheter (12Fr, manufactured by CLINY) was inserted into the prostatic urethra through the bladder body. Said catheter was ligated at the proximal urethra and the bladder body, and one of the ends thereof was connected with a pressure-transducer and a syringe pump (SP-25, manufactured by Terumo Corporation) via a three-way turncock. Then, the change in the perfusion pressure (i.e., the change in the urethral resistance, mmHg) caused by the continuous infusion of physiological saline (37° C., 3 ml/hr) through this catheter was recorded on a linearcorder (WR-3701, manufactured by Graphtec Corporation) via a carrier amplifier (AP-621G, manufactured by Nihon Kohden Corporation).
# In order to increase the urethral resistance, a solution of phenylephrine (α1 agonist) or endothelin-1 in physiological saline was intravenously administered at a prescribed dose (volume: 0.1 ml/kg) to the dogs when 60 minutes or more elapsed after the above operation.
# [2] = tested on: increase in urethral resistance induced by endothelin-1; assay: Inhibitory activity against the increase in urethral resistance induced by endothelin-1; assay type: in vivo, dog; details: intraduodenal administration 1 mg/kg; endothelin-1 0.4 nmol/kg i.v.; dogs
# Experimental: as §1, with “Moreover, in order to determine the ventral and dorsal prostatic urethral resistances, the apex of the urinary bladder was incised, and a 2-hole open-tip catheter (12Fr, manufactured by CLINY) was inserted into the prostatic urethra through the bladder body. Said catheter was ligated at the proximal urethra and the bladder body, and one of the ends thereof was connected with a pressure-transducer and a syringe pump (SP-25, manufactured by Terumo Corporation) via a three-way turncock.” left out, “Corporation). […]” for “Corporation).”
# [3] = tested on: prostatic contractions induced by endothelin-1; details: JP-A-8-508034; cited from earlier work
molecule,measurement,setting,value
CCC[C@@H]1NC(=O)[C@@H](C(C)C)NC(=O)[C@@H]2CCCN2C(=O)[C@@H](CC(=O)O)NC(=O)[C@@H](Cc2c[nH]c3ccccc23)NC1=O (cyclo([Nva][dW][dD]P[dV])),Inhibition of contractions of the smooth muscle of hypertrophied prostatic adenoma induced by endothelin-1,[1],inhibited
CNC[C@H](O)c1cccc(O)c1 [phenylephrine],Urethral pressure (increase of the prostatic urethral resistance),"anesthetized dogs; phenylephrine i.v. 0.3 μg/kg, anesthetized dogs",0.8 mmHg
same,Urethral pressure (increase of the prostatic urethral resistance),"anesthetized dogs; phenylephrine i.v. 1 μg/kg, anesthetized dogs",2.1 mmHg
same,Urethral pressure (increase of the prostatic urethral resistance),"anesthetized dogs; phenylephrine i.v. 3 μg/kg, anesthetized dogs",3.3 mmHg
same,Urethral pressure (increase of the prostatic urethral resistance),"anesthetized dogs; phenylephrine i.v. 10 μg/kg, anesthetized dogs",4.6 mmHg
same,Urethral pressure (increase of the prostatic urethral resistance),"anesthetized dogs; phenylephrine i.v. 30 μg/kg, anesthetized dogs",4.9 mmHg
"Cc1ccc(-c2c(NS(=O)(=O)c3ccc(C(C)(C)CO)cc3)ncnc2OCCOc2ncc(Br)cn2)cc1.[Na] [test compound, 4-(2-hydroxy-1,1-dimethylethyl)-N-[6-{2-(5-bromopyrimidin-2-yloxy)ethoxy}-5-(4-methylphenyl)pyrimidin-4-yl]benzenesulfonamide sodium salt 1.5 hydrate]",Inhibition of the increase in urethral resistance induced by endothelin-1,[2],completely inhibited
"N-(4-isopropylbenzenesulfonyl)-α-(4-carboxy-2-n-propylphenoxy)-3,4-methylenedioxyphenylacetamide dipotassium salt",Activity of inhibiting the prostatic contractions induced by endothelin-1,[3],shows an activity of inhibiting
"endothelin-1 (CSCSSLMDKECVYFCHLDIIW; ends and bridges not checked; cysteine pairing not given here; UniProt P05305 53-73, looked up)",Average increase of the urethral resistance relative to phenylephrine at 30 μg/kg,"anesthetized dogs; endothelin-1 0.4 nmol/kg vs phenylephrine 30 μg/kg, i.v., dogs",about 4 times
same,Urethral pressure (increase of the prostatic urethral resistance),"anesthetized dogs; endothelin-1 i.v. 0.05 nmol/kg, anesthetized dogs",2.2 mmHg
same,Urethral pressure (increase of the prostatic urethral resistance),"anesthetized dogs; endothelin-1 i.v. 0.1 nmol/kg, anesthetized dogs",4.5 mmHg
same,Urethral pressure (increase of the prostatic urethral resistance),"anesthetized dogs; endothelin-1 i.v. 0.2 nmol/kg, anesthetized dogs",14.3 mmHg
same,Urethral pressure (increase of the prostatic urethral resistance),"anesthetized dogs; endothelin-1 i.v. 0.4 nmol/kg, anesthetized dogs",18.9 mmHg
same,Urethral pressure (increase of the prostatic urethral resistance),"anesthetized dogs; endothelin-1 i.v. 0.8 nmol/kg, anesthetized dogs",15.4 mmHg
same,Duration of the urethral resistance increasing activity,"anesthetized dogs; i.v., anesthetized dogs, compared with phenylephrine",more long-acting than that of phenylephrine
